Experimental data taken from patent US10238670B2, “9-aminomethyl minocycline compounds and methods of use thereof in urinary tract infection (UTI) treatment” (Paratek Pharmaceuticals, Inc., priority 2016, dated 2019).

What was measured:
Assay in all cases: In vitro MIC, 2010 surveillance isolates
MR CoNS = type: cell-based, Coagulase-Negative Staphylococcus
MS CoNS = type: cell-based, Coagulase-Negative Staphylococcus
MRSA = type: cell-based
K. pneumoniae ESBL+ = type: cell-based, Klebsiella pneumoniae
E. coli ESBL+ = type: cell-based, Escherichia coli
Acinetobacter spp = type: cell-based
E. cloacae CeftazS = type: cell-based
Enterobacter spp = type: cell-based
E. coli ESBL− = type: cell-based, Escherichia coli
A. baumanii = type: cell-based
K. oxytoca = type: cell-based
MSSA = type: cell-based
K. pneumoniae ESBL− = type: cell-based, Klebsiella pneumoniae
E. cloacae CeftazR = type: cell-based

Gentamicin
% R (resistance) (MR CoNS; Asia/Pac, Eucast breakpoints): 72.7% | MIC90 (MR CoNS; Asia/Pac, N=77): > 8 µg/mL | % R (resistance) (MR CoNS; Europe, Eucast breakpoints): 56.2% | MIC90 (MR CoNS; Europe, N=510): > 8 µg/mL | % R (resistance) (MR CoNS; L. Amer, CLSI breakpoints): 33.2% | MIC90 (MR CoNS; L. Amer, N=301): > 8 µg/mL | % R (resistance) (MR CoNS; N America, CLSI breakpoints): 22.6% | MIC90 (MR CoNS; N America, N=461): > 8 µg/mL | % R (resistance) (MS CoNS; Asia/Pac, Eucast breakpoints): 33.3% | MIC90 (MS CoNS; Asia/Pac, N=18): 4 µg/mL | % R (resistance) (MS CoNS; Europe, Eucast breakpoints): 9.7% | MIC90 (MS CoNS; Europe, N=185): ≤ 1 µg/mL | % R (resistance) (MS CoNS; L. Amer, CLSI breakpoints): 7.5% | MIC90 (MS CoNS; L. Amer, N=67): 8 µg/mL | % R (resistance) (MS CoNS; N America, CLSI breakpoints): 2.1% | MIC90 (MS CoNS; N America, N=191): ≤ 1 µg/mL | % R (resistance) (MRSA; Asia/Pac, Eucast breakpoints): 58.6% | MIC90 (MRSA; Asia/Pac, N=428): > 8 µg/mL | % R (resistance) (MRSA; Europe, Eucast breakpoints): 23.1% | MIC90 (MRSA; Europe, N=750): > 8 µg/mL | % R (resistance) (MRSA; L. Amer, CLSI breakpoints): 35.4% | MIC90 (MRSA; L. Amer, N=506): > 8 µg/mL | % R (resistance) (MRSA; N America, CLSI breakpoints): 3.7% | MIC90 (MRSA; N America, N=2508): ≤ 1 µg/mL | % R (resistance) (K. pneumoniae ESBL+; Asia/Pac, Eucast breakpoints): 58.1% | MIC90 (K. pneumoniae ESBL+; Asia/Pac, N=124): > 8 µg/mL | % R (resistance) (K. pneumoniae ESBL+; Europe, Eucast breakpoints): 58.3% | MIC90 (K. pneumoniae ESBL+; Europe, N=151): > 8 µg/mL | % R (resistance) (K. pneumoniae ESBL+; L. Amer, CLSI breakpoints): 56.9% | MIC90 (K. pneumoniae ESBL+; L. Amer, N=209): > 8 µg/mL | % R (resistance) (K. pneumoniae ESBL+; N America, CLSI breakpoints): 46.3% | MIC90 (K. pneumoniae ESBL+; N America, N=108): > 8 µg/mL | % R (resistance) (E. coli ESBL+; Asia/Pac, Eucast breakpoints): 58.9% | MIC90 (E. coli ESBL+; Asia/Pac, N=219): > 8 µg/mL | % R (resistance) (E. coli ESBL+; Europe, Eucast breakpoints): 40.5% | MIC90 (E. coli ESBL+; Europe, N=274): > 8 µg/mL | % R (resistance) (E. coli ESBL+; L. Amer, CLSI breakpoints): 39.3% | MIC90 (E. coli ESBL+; L. Amer, N=168): > 8 µg/mL | % R (resistance) (E. coli ESBL+; N America, CLSI breakpoints): 26.1% | MIC90 (E. coli ESBL+; N America, N=134): > 8 µg/mL | % R (resistance) (Acinetobacter spp; Asia/Pac, Eucast breakpoints): 33.3% | % R (resistance) (Acinetobacter spp; Europe, Eucast breakpoints): 32.6% | MIC90 (Acinetobacter spp; Europe, N=43): > 8 µg/mL | % R (resistance) (Acinetobacter spp; L. Amer, CLSI breakpoints): 22.2% | % R (resistance) (Acinetobacter spp; N America, CLSI breakpoints): 14.3% | MIC90 (Acinetobacter spp; N America, N=42): > 8 µg/mL | % R (resistance) (E. cloacae CeftazS; Asia/Pac, Eucast breakpoints): 6% | MIC90 (E. cloacae CeftazS; Asia/Pac, N=100): ≤ 1 µg/mL | % R (resistance) (E. cloacae CeftazS; Europe, Eucast breakpoints): 1.1% | MIC90 (E. cloacae CeftazS; Europe, N=183): ≤ 1 µg/mL | % R (resistance) (E. cloacae CeftazS; L. Amer, CLSI breakpoints): 12.3% | MIC90 (E. cloacae CeftazS; L. Amer, N=57): > 8 µg/mL | % R (resistance) (E. cloacae CeftazS; N America, CLSI breakpoints): 0% | MIC90 (E. cloacae CeftazS; N America, N=210): ≤ 1 µg/mL | % R (resistance) (Enterobacter spp; Asia/Pac, Eucast breakpoints): 7.7% | MIC90 (Enterobacter spp; Asia/Pac, N=52): ≤ 1 µg/mL | % R (resistance) (Enterobacter spp; Europe, Eucast breakpoints): 4.9% | MIC90 (Enterobacter spp; Europe, N=82): ≤ 1 µg/mL | % R (resistance) (Enterobacter spp; L. Amer, CLSI breakpoints): 9.5% | MIC90 (Enterobacter spp; L. Amer, N=42): 2 µg/mL | MIC90 (Enterobacter spp; N America, N=101): ≤1 (1) | % R (resistance) (E. coli ESBL−; Asia/Pac, Eucast breakpoints): 16.3% | MIC90 (E. coli ESBL−; Asia/Pac, N=282): > 8 µg/mL | % R (resistance) (E. coli ESBL−; Europe, Eucast breakpoints): 7.4% | MIC90 (E. coli ESBL−; Europe, N=1533): 2 µg/mL | % R (resistance) (E. coli ESBL−; L. Amer, CLSI breakpoints): 9% | MIC90 (E. coli ESBL−; L. Amer, N=389): 2 µg/mL | % R (resistance) (E. coli ESBL−; N America, CLSI breakpoints): 7.7% | MIC90 (E. coli ESBL−; N America, N=1172): 2 µg/mL | % R (resistance) (A. baumanii; Asia/Pac, Eucast breakpoints): 80% | MIC90 (A. baumanii; Asia/Pac, N=275): > 8 µg/mL | % R (resistance) (A. baumanii; Europe, Eucast breakpoints): 61.4% | MIC90 (A. baumanii; Europe, N=145): > 8 µg/mL | % R (resistance) (A. baumanii; L. Amer, CLSI breakpoints): 52.4% | MIC90 (A. baumanii; L. Amer, N=275): > 8 µg/mL | % R (resistance) (A. baumanii; N America, CLSI breakpoints): 57.8% | MIC90 (A. baumanii; N America, N=154): > 8 µg/mL | % R (resistance) (K. oxytoca; Asia/Pac, Eucast breakpoints): 17.6% | MIC90 (K. oxytoca; Asia/Pac, N=17): > 8 µg/mL | % R (resistance) (K. oxytoca; Europe, Eucast breakpoints): 8.2% | MIC90 (K. oxytoca; Europe, N=158): ≤ 1 µg/mL | % R (resistance) (K. oxytoca; L. Amer, CLSI breakpoints): 12% | MIC90 (K. oxytoca; L. Amer, N=25): > 8 µg/mL | % R (resistance) (K. oxytoca; N America, CLSI breakpoints): 2.3% | MIC90 (K. oxytoca; N America, N=177): ≤ 1 µg/mL | % R (resistance) (MSSA; Asia/Pac, Eucast breakpoints): 8.4% | MIC90 (MSSA; Asia/Pac, N=641): ≤ 1 µg/mL | % R (resistance) (MSSA; Europe, Eucast breakpoints): 2.7% | MIC90 (MSSA; Europe, N=2109): ≤ 1 µg/mL | % R (resistance) (MSSA; L. Amer, CLSI breakpoints): 1.9% | MIC90 (MSSA; L. Amer, N=590): ≤ 1 µg/mL | % R (resistance) (MSSA; N America, CLSI breakpoints): 0.7% | MIC90 (MSSA; N America, N=2373): ≤ 1 µg/mL | % R (resistance) (K. pneumoniae ESBL−; Asia/Pac, Eucast breakpoints): 3.7% | MIC90 (K. pneumoniae ESBL−; Asia/Pac, N=189): ≤ 1 µg/mL | % R (resistance) (K. pneumoniae ESBL−; Europe, Eucast breakpoints): 2.2% | MIC90 (K. pneumoniae ESBL−; Europe, N=361): ≤ 1 µg/mL | % R (resistance) (K. pneumoniae ESBL−; L. Amer, CLSI breakpoints): 1.3% | MIC90 (K. pneumoniae ESBL−; L. Amer, N=160): ≤ 1 µg/mL | % R (resistance) (K. pneumoniae ESBL−; N America, CLSI breakpoints): 1.2% | MIC90 (K. pneumoniae ESBL−; N America, N=671): ≤ 1 µg/mL | % R (resistance) (E. cloacae CeftazR; Asia/Pac, Eucast breakpoints): 39.7% | MIC90 (E. cloacae CeftazR; Asia/Pac, N=63): > 8 µg/mL | % R (resistance) (E. cloacae CeftazR; Europe, Eucast breakpoints): 43.1% | MIC90 (E. cloacae CeftazR; Europe, N=72): > 8 µg/mL | % R (resistance) (E. cloacae CeftazR; L. Amer, CLSI breakpoints): 38.1% | MIC90 (E. cloacae CeftazR; L. Amer, N=42): > 8 µg/mL | % R (resistance) (E. cloacae CeftazR; N America, CLSI breakpoints): 20.8% | MIC90 (E. cloacae CeftazR; N America, N=77): > 8 µg/mL
